Assay results published in ChEMBL document CHEMBL5113400, “Design, synthesis, and biological evaluation of trizole-based heteroaromatic derivatives as Bcr-Abl kinase inhibitors” (Eur J Med Chem, 2022).

Columns and labels:
K-562R = assay: Antiproliferative activity against human K-562R cells expressing Bcr-Abl T315I mutant assessed as inhibition of cell growth incubated for 48 hrs by MTT assay; assay type: functional, cell-based
BaF3 [1] = assay: Antiproliferative activity against mouse BaF3 cells assessed as inhibition of cell growth incubated for 72 hrs by CellTiter-Glo luminescent assay; assay type: functional, cell-based; settings: BaF3, 72 h
BaF3 [2] = assay: Antiproliferative activity against mouse BaF3 cells expressing wild type Bcr-Abl assessed as inhibition of cell growth incubated for 72 hrs by CellTiter-Glo luminescent assay; assay type: functional, cell-based; settings: BaF3, 72 h
K562 = assay: Antiproliferative activity against human K562 cells assessed as inhibition of cell growth incubated for 48 hrs by MTT assay; assay type: functional, cell-based; settings: K562, 48 h
K562/Adr [3] = assay: Antiproliferative activity against human Adriamycin-resistant K562/Adr cells assessed as inhibition of cell growth incubated for 48 hrs by MTT assay; assay type: functional, cell-based
Bcr/Abl fusion protein [4] = molecular target: Bcr/Abl fusion protein (Homo sapiens, UniProt P00519); assay: Inhibition of wild type Bcr-Abl (unknown origin) incubated for 1 hr in presence of ATP by ADP-Glo kinase assay; assay type: protein assay
BaF3 [5] = assay: Antiproliferative activity against mouse BaF3 cells expressing Bcr-Abl T315I mutant assessed as inhibition of cell growth at 30 uM incubated for 72 hrs by CellTiter-Glo luminescent assay; assay type: functional
Bcr/Abl fusion protein [6] = molecular target: Bcr/Abl fusion protein (Homo sapiens, UniProt P00519, T315I); assay: Inhibition of Bcr-Abl T315I mutant (unknown origin) incubated for 1 hr in presence of ATP by ADP-Glo kinase assay; assay type: protein assay
K562/Adr [7] = assay: Antiproliferative activity against human Adriamycin-resistant K562/Adr cells assessed as inhibition of cell growth at 30 uM incubated for 48 hrs by MTT assay; assay type: functional

Row | SMILES | IC50 (K-562R) | IC50 (BaF3 [1]) | IC50 (BaF3 [2]) | IC50 (K562) | IC50 (K562/Adr [3]) | IC50 (Bcr/Abl fusion protein [4]) | IC50 (Bcr/Abl fusion protein [6]) | inhibition at 30 µM (BaF3 [5]) | inhibition at 30 µM (K562/Adr [7])
1 | Nc1nc2ccc(-c3cn([C@@H]4CN[C@H](C(=O)Nc5ccc(F)c(F)c5)C4)nn3)nc2s1 |  |  |  | 33200 nM |  | 128 nM | 1590 nM |  | 27.4%
2 | CCN(CC)C(=O)c1cncc(-c2cn([C@@H]3CN[C@H](C(=O)Nc4ccc(Cl)c(C(F)(F)F)c4)C3)nn2)c1 |  |  |  | 27600 nM |  | 14.5 nM | 261 nM |  | 32.4%
3 | Nc1nc2ccc(-c3cn([C@@H]4CN[C@H](C(=O)Nc5ccc(Cl)cc5Cl)C4)nn3)nc2s1 |  |  |  | 24500 nM |  | 9.45 nM | 118 nM | 19.5% | 42.2%
4 | O=C(Nc1nc2ccc(-c3cn([C@@H]4CN[C@H](C(=O)Nc5ccc(Cl)c(C(F)(F)F)c5)C4)nn3)nc2s1)C1CC1 |  |  |  | 16200 nM |  | 24.6 nM | 110 nM | 78.8% | 10.4%
5 | CC(C)(C)OC(=O)N1C[C@@H](n2cc(-c3ccc4nc(N)sc4n3)nn2)C[C@H]1C(=O)Nc1ccc(Br)cc1 |  |  |  | 29200 nM |  | 6.88 nM | 25.2 nM |  | 31.7%
6 | CN(C)CCNC(=O)c1cncc(-c2cn([C@@H]3CN[C@H](C(=O)Nc4ccc(Cl)c(C(F)(F)F)c4)C3)nn2)c1 |  |  |  | 21000 nM |  | 29.2 nM | 349 nM | 21.8% | 14.5%
7 | CC(C)(C)C(=O)Nc1ccc(-c2cn([C@@H]3CN[C@H](C(=O)Nc4ccc(Cl)c(C(F)(F)F)c4)C3)nn2)cn1 |  |  |  | 43800 nM |  | 41.5 nM | 3440 nM |  | 19.1%
8 | Nc1nc2ccc(-c3cn([C@@H]4CN[C@H](C(=O)Nc5ccc(Br)cc5)C4)nn3)nc2s1 |  |  |  | 24400 nM |  | 27.1 nM | 178 nM | 27.5% | 35.9%
9 | CC(=O)Nc1n[nH]c2cc(-c3cn([C@@H]4CN[C@H](C(=O)Nc5ccc(Cl)c(C(F)(F)F)c5)C4)nn3)ccc12 |  |  |  | 15500 nM |  | 28.2 nM | 121 nM | 21.8% | 23.4%
10 | Nc1n[nH]c2cc(-c3cn([C@@H]4CN[C@H](C(=O)Nc5ccc(Cl)cc5Cl)C4)nn3)ccc12 |  |  |  | 28400 nM |  | 8.6 nM | 3670 nM | 19.3% | 29.4%
11 | CC(=O)Nc1nc2ccc(-c3cn([C@@H]4CN[C@H](C(=O)Nc5ccc(F)c(F)c5)C4)nn3)nc2s1 |  |  |  | 63000 nM |  | 202 nM | 1890 nM |  | 38.4%
12 | Nc1nc2ccc(-c3cn([C@@H]4CN[C@H](C(=O)Nc5ccc(Cl)c(C(F)(F)F)c5)C4)nn3)nc2s1 |  |  |  | 26200 nM | 187000 nM | 15.6 nM | 24.7 nM |  | 
13 | O=C(Nc1ccc(Cl)c(C(F)(F)F)c1)[C@@H]1C[C@H](n2cc(-c3cncc(C(=O)N4CCOCC4)c3)nn2)CN1 |  |  |  | 28800 nM |  | 60.1 nM | 801 nM |  | 25.6%
14 | O=C(Nc1nc2ccc(-c3cn([C@@H]4CN[C@H](C(=O)Nc5ccc(F)c(F)c5)C4)nn3)nc2s1)C1CC1 |  |  |  | 40700 nM |  | 30.1 nM | 1340 nM |  | 29.5%
15 | Cc1ccc(C(=O)Nc2ccc(CN3CCN(C)CC3)c(C(F)(F)F)c2)cc1C#Cc1cnc2cccnn12 [PONATINIB] | 80 nM |  |  |  |  |  |  |  | 
16 | CC(C)(C)OC(=O)N1C[C@@H](n2cc(-c3ccc4nc(N)sc4n3)nn2)C[C@H]1C(=O)Nc1ccc(F)c(F)c1 |  |  |  | 26400 nM | 63800 nM | 17.4 nM | 487 nM | 16.8% | 

Further molecules by falling IC50 (K562), results first:

Row | IC50 (K-562R) | IC50 (BaF3 [1]) | IC50 (BaF3 [2]) | IC50 (K562) | IC50 (K562/Adr [3]) | IC50 (Bcr/Abl fusion protein [4]) | IC50 (Bcr/Abl fusion protein [6]) | SMILES | inhibition at 30 µM (BaF3 [5]) | inhibition at 30 µM (K562/Adr [7])
17 |  |  |  | 12200 nM |  | 60.6 nM | 1880 nM | CC(C)(C)OC(=O)N1C[C@@H](n2cc(-c3ccc4c(N)n[nH]c4c3)nn2)C[C@H]1C(=O)Nc1ccc(Cl)cc1Cl | 28.7% | 25.6%
18 |  |  |  | 10800 nM |  | 10.6 nM | 667 nM | CC(C)(C)OC(=O)N1C[C@@H](n2cc(-c3ccc4nc(N)sc4n3)nn2)C[C@H]1C(=O)Nc1ccc(Cl)c(C(F)(F)F)c1 | 52.3% | 27.4%
19 |  |  |  | 10500 nM |  | 21.9 nM | 150 nM | CC(C)(C)OC(=O)N1C[C@@H](n2cc(-c3ccc4c(N)n[nH]c4c3)nn2)C[C@H]1C(=O)Nc1ccc(Cl)c(C(F)(F)F)c1 | 53.8% | 37.1%
20 |  |  |  | 10400 nM | 25200 nM | 3.11 nM | 303 nM | Nc1ccc(-c2cn([C@@H]3CN[C@H](C(=O)Nc4ccc(Cl)c(C(F)(F)F)c4)C3)nn2)cn1 | 27.9% | 
21 |  |  |  | 10300 nM |  | 43.6 nM | 310 nM | Nc1n[nH]c2cc(-c3cn([C@@H]4CN[C@H](C(=O)Nc5ccc(Br)cc5)C4)nn3)ccc12 |  | 26.8%
22 |  |  |  | 10000 nM |  | 23.5 nM | 59.6 nM | CC(=O)Nc1nc2ccc(-c3cn([C@@H]4CN[C@H](C(=O)Nc5ccc(Cl)c(C(F)(F)F)c5)C4)nn3)nc2s1 | 44.8% | 
23 |  |  |  | 9670 nM |  | 4.8 nM | 388 nM | CC(=O)Nc1nc2ccc(-c3cn([C@@H]4CN[C@H](C(=O)Nc5ccc(Cl)cc5Cl)C4)nn3)nc2s1 | 39.5% | 36.1%
24 |  |  |  | 8980 nM |  | 3.45 nM | 127 nM | CC(=O)Nc1ccc(-c2cn([C@@H]3CN[C@H](C(=O)Nc4ccc(Cl)c(C(F)(F)F)c4)C3)nn2)cn1 | 26.5% | 33.6%
25 |  |  |  | 8940 nM |  | 14.7 nM | 410 nM | CC(C)(C)OC(=O)N1C[C@@H](n2cc(-c3ccc4nc(N)sc4n3)nn2)C[C@H]1C(=O)Nc1ccc(Cl)cc1Cl | 86.7% | 28.3%
26 |  |  |  | 8770 nM |  | 0.65 nM | 338 nM | O=C(Nc1ccc(-c2cn([C@@H]3CN[C@H](C(=O)Nc4ccc(Cl)c(C(F)(F)F)c4)C3)nn2)cn1)C1CC1 | 36.4% | 44.3%
27 |  |  |  | 8320 nM |  | 15 nM | 137 nM | Nc1n[nH]c2cc(-c3cn([C@@H]4CN[C@H](C(=O)Nc5ccc(Cl)c(C(F)(F)F)c5)C4)nn3)ccc12 | 31.2% | 48.2%
28 |  |  |  | 8160 nM | 48200 nM | 10.4 nM | 33.3 nM | O=C(Nc1nc2ccc(-c3cn([C@@H]4CN[C@H](C(=O)Nc5ccc(Br)cc5)C4)nn3)nc2s1)C1CC1 | 66.5% | 
29 |  |  |  | 8080 nM |  | 5.53 nM | 144 nM | O=C(Nc1n[nH]c2cc(-c3cn([C@@H]4CN[C@H](C(=O)Nc5ccc(Br)cc5)C4)nn3)ccc12)C1CC1 | 20% | 39.6%
30 |  |  |  | 5340 nM |  | 0.83 nM | 200 nM | O=C(Nc1n[nH]c2cc(-c3cn([C@@H]4CN[C@H](C(=O)Nc5ccc(Cl)cc5Cl)C4)nn3)ccc12)C1CC1 | 27.6% | 43.3%
31 |  |  |  | 5020 nM |  | 6.99 nM | 169 nM | CC(=O)Nc1nc2ccc(-c3cn([C@@H]4CN[C@H](C(=O)Nc5ccc(Br)cc5)C4)nn3)nc2s1 | 40% | 32%
32 |  |  |  | 4710 nM |  | 0.94 nM | 125 nM | CC(C)(C)OC(=O)N1C[C@@H](n2cc(-c3ccc(N)nc3)nn2)C[C@H]1C(=O)Nc1ccc(Cl)c(C(F)(F)F)c1 | 66.7% | 48.6%
33 |  |  |  | 3860 nM | 80400 nM | 9.26 nM | 140 nM | C=CC(=O)Nc1ccc(-c2cn([C@@H]3CN[C@H](C(=O)Nc4ccc(Cl)c(C(F)(F)F)c4)C3)nn2)cn1 | 26% | 
34 |  |  |  | 3830 nM | 1000 nM | 5.85 nM | 343 nM | CC(=O)Nc1n[nH]c2cc(-c3cn([C@@H]4CN[C@H](C(=O)Nc5ccc(Br)cc5)C4)nn3)ccc12 | 21.8% | 
35 |  |  |  | 3710 nM |  | 50 nM | 237 nM | CC(C)(C)OC(=O)N1C[C@@H](n2cc(-c3ccc4c(N)n[nH]c4c3)nn2)C[C@H]1C(=O)Nc1ccc(Br)cc1 | 20.1% | 23%
36 |  |  |  | 2090 nM | 1230 nM | 3.15 nM | 135 nM | CC(=O)Nc1n[nH]c2cc(-c3cn([C@@H]4CN[C@H](C(=O)Nc5ccc(Cl)cc5Cl)C4)nn3)ccc12 | 25.5% | 
37 | 93000 nM | 10000 nM | 230 nM | 1100 nM | 13500 nM |  |  | Cc1ccc(NC(=O)c2ccc(CN3CCN(C)CC3)cc2)cc1Nc1nccc(-c2cccnc2)n1 [IMATINIB] |  | 
38 |  |  |  | 820 nM | 175000 nM | 1.94 nM | 31.5 nM | O=C(NC1CC1)c1cncc(-c2cn([C@@H]3CN[C@H](C(=O)Nc4ccc(Cl)c(C(F)(F)F)c4)C3)nn2)c1 | 24.6% | 
39 |  |  |  | 180 nM | 12600 nM | 8.71 nM | 84.8 nM | CCN1CCN(c2cc(NC(=O)[C@@H]3C[C@H](n4cc(-c5ccc6c(N)n[nH]c6c5)nn4)CN3)ccc2Cl)CC1 | 20% | 
